Results as given in patent US7910621B2, “Small molecule antagonists of XIAP family proteins” (The Regents of the University of Michigan, priority 2004, dated 2011).
Ends that are not written are not given here. Peptide text beside a SMILES is read from it. * marks the point of attachment. 6FAM = O=C1OC2(c3ccc(O)cc3Oc3cc(O)ccc32)c2cc(C(=O)*)ccc21; Cbz = O=C(OCc1ccccc1)*; CH2F = FC*

Experiments:
[1] = biological target: T1, BIR3 domain (residues 241-356) of human XIAP (Homo sapiens, UniProt P98170); test: XIAP binding assay, FP-based (Smac-Flu tracer); details: Table 5
T1 construct: the BIR3 domain (residues 241-356) of human XIAP fused to His-tag; His-tag
T1 sequence (P98170 241-356): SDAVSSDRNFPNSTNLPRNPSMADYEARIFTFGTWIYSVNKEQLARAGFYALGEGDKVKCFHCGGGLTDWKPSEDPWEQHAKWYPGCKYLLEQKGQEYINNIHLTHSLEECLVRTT
Description: An established sensitive and quantitative in vitro fluorescence polarization-based (FP) binding assay for testing of the binding affinity of each new small molecule inhibitor of XIAP is used. […] The competing inhibitor is then added in microtiter wells. If the inhibitor does compete with Smac-Flu to bind to XIAP, it displaces the Smac-Flu peptide from the complex and cause a reduction in the polarization value. […] The change in the polarization value is used to determine the relative affinity of the inhibitor for XIAP. The XIAP used in this assay is the BIR3 domain (residues 241-356) of human XIAP fused to His-tag.
The FP assays were performed as follows: each 96-well contains 50 nM Smac-Flu peptide, 985 nM XIAP protein and 5 ul tested compounds in a final volume of 20 ul. Tested compounds were serially diluted in triplicate in concentration from 0 to 100 uM. For each assay negative controls containing XIAP and Smac-Flu (equivalent to 0% inhibition) and positive controls containing only free Smac-Flu peptide (equivalent to 100% inhibition) were included on each assay plate. The polarization values were measured after 3 hour incubation when the binding reached equilibrium. IC50 values were determined from the plot using nonlinear least-squares analysis. Curve fitting was performed using […] PRISM software. The Kis of competing compounds were derived from the measured IC50 and the Kd of Smac-Flu in the competition assays, using the Cheng-Prusoff equation. The fluorescence intensity of each tested inhibitor is closely monitored to exclude any false positives. Furthermore, compounds with high fluorescence intensity are tested using the NMR methods described below.

[2] = biological target: T2, human XIAP BIR3 protein (residues 241-356) (Homo sapiens, UniProt P98170); test: FP direct binding of fluorescent labeled Smac peptides to XIAP BIR3 (Kd titration)
T2 construct: The human XIAP BIR3 protein (residues 241-356) with a His tag; His tag
T2 sequence (P98170 241-356): as above

[3] = system: Jurkat-XIAP cells; test: Cell growth assay, Jurkat-XIAP; assay type: cell-based
Description: (§1) FIG. 9 presents inhibition of cell growth by embelin in Jurkat-Vec and Jurkat-XIAP cells. The cell growth results are expressed as the percent of control and calculated from the percent of absorbance of treated wells versus that of vehicle control.
(§2) Human prostate cancer cell lines (PC-3, LNCap, CL-1, DU-145), and normal human fibroblast cell line WI-38 were obtained from the American Type Culture Collection (ATCC), were grown and maintained in Dulbecco's modified Eagle's medium (DMEM) containing 10% FBS (Invitrogen Corporation). Normal human prostate epithelial cells (PrEC) were obtained from Clonetics (Cambrex Inc., MD) and maintained in the special medium provided by the company. Jurkat T-cells stably transfected with either empty vector (Jurkat-Vec), or XIAP (Jurkat-XIAP) and were cultured in RPMI 1640 containing 10% fetal calf serum and 1 ug/ml puromycin. Cell cultures were maintained in a humidified incubator at 37° C. and 5% CO2.
Cell growth was determined by the MTT-based assay using Cell Proliferation Reagent WST-1 (Roche) according to the manufacturer's instruction. The WST-1 assay is a colorimetric assay that measures the reduction of WST-1 by mitochondrial succinate dehydrogenase, which belongs to the respiratory chain of the mitochondria and is active only in viable cells. The WST-1 enters the cells and passes into the mitochondria, where it is reduced to a soluble, colored formazan product. The amount of formazan dye formed directly correlates to the number of metabolically active cells in the culture. Cells (5000 cells/well) were grown in medium with 10% FBS, and various concentrations of drugs were added to the cells in triplicate. […] Absorbance was measured with a plate reader at […] with correction at […]. The results are expressed as the percent of absorbance of treated wells versus that of vehicle control.

[4] = system: Jurkat-Vec cells; test: Cell growth assay, Jurkat-Vec; assay type: cell-based; details: 2.5 μM, 72 hours
Description: as §1, §2
Cell growth was determined by the MTT-based assay using Cell Proliferation Reagent WST-1 (Roche) according to the manufacturer's instruction. […] Absorbance was measured with a plate reader at […] with correction at […]. The results are expressed as the percent of absorbance of treated wells versus that of vehicle control.

[5] = biological target: XIAP BIR3 protein of human XIAP (residues 241-356) (Homo sapiens, UniProt P98170); test: biochemical
Sequence of XIAP BIR3 protein of human XIAP (residues 241-356) (P98170 241-356): as above

[6] = system: caspase-9 in PC-3 cells; test: Activation of caspase-9 assay, PC-3; assay type: cell-based, human; details: for blocking of active caspase-9 staining in Annexin V-FITC positive cells by pre-incubation: embelin-treated PC-3 cells pre-incubated with excessive inhibitor (20 μM LEHD-FMK, 5 min) before staining
Description: FIGS. 7A and 7B show the activation of caspase-9 by embelin in PC-3 prostate cancer cells and its selectivity in normal prostate epithelial cells. 1×10^6 PC-3 or PrEC cells per well in 6-well culture plates were treated with embelin for 48 hours. […] The cells were collected and stained of active caspase-9 by CaspGLOW Red Active Caspase-9 Staining Kit, and analyzed by flow cytometry in PI channel.
1×10^6 PC-3 cells per well in 6-well culture plates, were treated with various concentrations of embelin, or the same amount of solvent DMSO as vehicle control, for up to 48 hr. […] The cells were collected for staining of active caspase-9 by CaspGLOW Red Active Caspase-9 Staining Kit (BioVision, Inc., Mountain View, Calif.) according to the manufacturer's instructions, with modification. Briefly, to each tube containing 1×10^6 treated or control cells in 0.3 ml complete culture medium was added 1 μl of Red-LEHD-FMK and incubated for 0.5 hr at 37° C. incubator with 5% CO2. For double staining with Annexin V-FITC, the cells were spun down and resuspended in 100 μl Binding Buffer containing 1× Annexin V-FITC from the Annexin-V-FLUOS Kit (Roche) and incubated at room temperature for 10 min. The cells were then washed two times with Wash Buffer from the Active Caspase-9 Staining Kit. The cells were resuspended in 0.3 ml Binding Buffer and analyzed by flow cytometry, using PI channel for active caspase-9 and FITC channel for apoptosis.
The active caspase-9 and Annexin V double stained cells were also observed under Zeiss Laser Scanning Confocal Microscope LSM 510 Meta, using the fluorescent filter sets for rhodamine (Red) and FITC (green) channels. Early apoptotic cells show green fluorescence on the cell membrane while caspase-9 positive cells show bright red staining in the cytoplasm. Photos were taken at original magnification of 630×.

Molecule	IC50 [1]	further results
Cc1ccc(CCc2cccc(CCC3=C(O)C(=O)C=C(O)C3=O)c2)cc1 [CJ-274]	2.14 ± 0.73 µM	
CC(C)c1ccc(CCc2cccc(CCC3=C(O)C(=O)C=C(O)C3=O)c2)cc1 [CJ-294]	3.76 ± 0.25 µM	
CC(C)c1ccc(CCc2cccc(CCC3=C(O)C(=O)C=C(O)C3=O)c2)cc1 [CJ-301]	3.42 ± 0.31 µM	
Cc1ccc(NC(=O)c2cccc(CCC3=C(O)C(=O)C=C(O)C3=O)c2)cc1 [CJ-305]	1.62 ± 0.28 µM	
Cc1ccc(CNC(=O)c2cccc(CCC3=C(O)C(=O)C=C(O)C3=O)c2)cc1 [CJ-315]	5.27 ± 1.43 µM	
Cc1cccc(NC(=O)c2cccc(CCC3=C(O)C(=O)C=C(O)C3=O)c2)c1 [CJ-322]	4.89 ± 0.75 µM	
Cc1ccccc1NC(=O)c1cccc(CCC2=C(O)C(=O)C=C(O)C2=O)c1 [CJ-323]	11.6 ± 0.96 µM	
O=C1C=C(O)C(=O)C(CCc2cccc(C(=O)Nc3ccc(Cl)c(Cl)c3)c2)=C1O [CJ-327]	12.3 ± 1.09 µM	
O=C1C=C(O)C(=O)C(CCc2ccccc2)=C1O [CJ-331]	89.1 ± 11.3 µM	
C[C@H](N)C(=O)N[C@@H](CCCNC(=N)N)C(=O)N1CCC[C@H]1C(=O)N[C@@H](Cc1ccccc1)C(=O)N[C@@H](C)C(=O)N[C@@H](CCC(N)=O)C(=O)N[C@@H](CCCCNC(=O)c1ccc2c(c1)C1(OC2=O)c2ccc(O)cc2Oc2cc(O)ccc21)C(=O)O [SM7F, ARPFAQK-FAM] (H-ARPFAQK(6FAM)-OH; N-terminus and C-terminus assumed)		binding affinity compared with S9F [2]: higher binding affinity than S9F; ratio of the Kd values between labeled SM7F and S9F [2]: 7.3 times
COc1cc([C@@H]2c3cc4c(cc3[C@@H](O[C@@H]3O[C@@H]5CO[C@@H](C)O[C@H]5[C@H](O)[C@H]3O)[C@H]3COC(=O)[C@H]23)OCO4)cc(OC)c1O [etoposide]		cells killed in cell growth assay ([3]; 2.5 μM, 72 hours): 59%±2%; cells killed in cell growth assay ([3]; 10 μM): 85%±0.1%; cells killed in cell growth assay [4]: 94.3%±0.6%
ARPFAQK [SM7]		IC50 [5]: 0.57 ± 0.11 µM
Cbz-Val-Ala-Asp-CH2F [ZVAD peptide, reference compound]		blocking of Annexin V-FITC and active caspase-9 double staining ([6]; PC-3 cells, 40 μM embelin, 48 hrs): blocked; inhibition of embelin-induced activation of caspase-9 ([6]; pan-caspase inhibitor added 5 min before embelin): effectively inhibited
LEHD-FMK [reference compound]		blocking of active caspase-9 staining in Annexin V-FITC positive cells by pre-incubation [6]: blocked
ZDEVD-FMK [reference compound]		blocking of active caspase-9 staining in Annexin V-FITC positive cells by pre-incubation [6]: did not

Second part, led by results:

IC50 [1]	Molecule	further results
61.4 ± 9.29 µM	CC(C)CCCCCC1=CC(=O)C=C(O)C1=O [EW-2]	
353 ± 79.4 µM	O=C1C=C(O)C(=O)C(CCCCc2ccccc2)=C1 [EW-3]	
27.6 ± 2.76 µM	CCCCc1cccc(CCC2=C(O)C(=O)C=C(O)C2=O)c1 [EW-4]	
14.3 ± 2.41 µM	O=C1C(O)=C(CCc2cccc(CCc3ccccc3)c2)C(=O)C(O)=C1CCc1ccccc1 [EW-6]	
9.18 ± 1.9 µM	O=C1C=C(O)C(=O)C(CCc2cccc(CCc3cccc(Cl)c3)c2)=C1O [EW-7]	
8.05 ± 1.48 µM	O=C1C=C(O)C(=O)C(CCc2cccc(CCc3ccc(Cl)cc3)c2)=C1O [EW-8]	
475 ± 122 µM	CCC1=C(O)C(=O)C=C(O)C1=O [EW-9]	
